Experimental data as given in the NIST ThermoML archive (doi:10.1016/j.fluid.2013.12.008).
Numbers after ± are expanded uncertainties.

What was measured:
[1] = xn = mol fraction of the nth substance listed; details: 101 kPa, Liquid; for viscosity: Falling or rolling sphere viscometry; for mass density: Vibrating tube method
[2] = 101 kPa, Liquid; for viscosity: Falling or rolling sphere viscometry; for mass density: Vibrating tube method

Structure (SMILES): CCn1cc[n+](C)c1.N#CN=C=[N-] [1-ethyl-3-methylimidazolium dicyanamide] + CCn1cc[n+](C)c1.N#C[C-](C#N)C#N
- viscosity ([1]; 293.15 K, x2 = 0): 17.54 ± 0.41 mPa·s
- mass density ([1]; 293.15 K, x2 = 0): 1104.6 ± 1.4 kg/m3
- viscosity ([1]; 303.15 K, x2 = 0): 13.11 ± 0.31 mPa·s
- mass density ([1]; 303.15 K, x2 = 0): 1098 ± 1.4 kg/m3
- viscosity ([1]; 313.15 K, x2 = 0): 10.17 ± 0.24 mPa·s
- mass density ([1]; 313.15 K, x2 = 0): 1091.4 ± 1.4 kg/m3
- viscosity ([1]; 323.15 K, x2 = 0): 8.13 ± 0.19 mPa·s
- mass density ([1]; 323.15 K, x2 = 0): 1084.9 ± 1.4 kg/m3
- viscosity ([1]; 333.15 K, x2 = 0): 6.66 ± 0.16 mPa·s
- mass density ([1]; 333.15 K, x2 = 0): 1078.5 ± 1.4 kg/m3
- viscosity ([1]; 343.15 K, x2 = 0): 5.58 ± 0.13 mPa·s
- mass density ([1]; 343.15 K, x2 = 0): 1072.1 ± 1.3 kg/m3
- viscosity ([1]; 353.15 K, x2 = 0): 4.75 ± 0.11 mPa·s
- mass density ([1]; 353.15 K, x2 = 0): 1065.8 ± 1.3 kg/m3

Structure (SMILES): CCn1cc[n+](C)c1.N#CN=C=[N-] [1-ethyl-3-methylimidazolium dicyanamide]
- viscosity ([2]; 293.15 K): 17.54 ± 0.41 mPa·s
- mass density ([2]; 293.15 K): 1104.6 ± 1.4 kg/m3
- viscosity ([2]; 303.15 K): 13.11 ± 0.31 mPa·s
- mass density ([2]; 303.15 K): 1098 ± 1.4 kg/m3
- viscosity ([2]; 313.15 K): 10.17 ± 0.24 mPa·s
- mass density ([2]; 313.15 K): 1091.4 ± 1.4 kg/m3
- viscosity ([2]; 323.15 K): 8.13 ± 0.19 mPa·s
- mass density ([2]; 323.15 K): 1084.9 ± 1.4 kg/m3
- viscosity ([2]; 333.15 K): 6.66 ± 0.16 mPa·s
- mass density ([2]; 333.15 K): 1078.5 ± 1.4 kg/m3
- viscosity ([2]; 343.15 K): 5.58 ± 0.13 mPa·s
- mass density ([2]; 343.15 K): 1072.1 ± 1.3 kg/m3
- viscosity ([2]; 353.15 K): 4.75 ± 0.11 mPa·s
- mass density ([2]; 353.15 K): 1065.8 ± 1.3 kg/m3

Structure (SMILES): CCn1cc[n+](C)c1.N#C[C-](C#N)C#N [1-ethyl-3-methyl-1H-imidazolium tricyanomethanide] + CCn1cc[n+](C)c1.N#CN=C=[N-]
- viscosity ([1]; 293.15 K, x1 = 0.2): 17.55 ± 0.41 mPa·s
- viscosity ([1]; 293.15 K, x1 = 0.4): 17.59 ± 0.41 mPa·s
- viscosity ([1]; 293.15 K, x1 = 0.6): 17.6 ± 0.41 mPa·s
- viscosity ([1]; 293.15 K, x1 = 0.8): 17.64 ± 0.41 mPa·s
- viscosity ([1]; 293.15 K, x1 = 1): 17.72 ± 0.42 mPa·s
- mass density ([1]; 293.15 K, x1 = 0.2): 1099.9 ± 1.4 kg/m3
- mass density ([1]; 293.15 K, x1 = 0.4): 1095.8 ± 1.4 kg/m3
- mass density ([1]; 293.15 K, x1 = 0.6): 1091.9 ± 1.4 kg/m3
- mass density ([1]; 293.15 K, x1 = 0.8): 1088.4 ± 1.4 kg/m3
- mass density ([1]; 293.15 K, x1 = 1): 1085.2 ± 1.4 kg/m3
- viscosity ([1]; 303.15 K, x1 = 0.2): 13.05 ± 0.31 mPa·s
- viscosity ([1]; 303.15 K, x1 = 0.4): 13.02 ± 0.31 mPa·s
- viscosity ([1]; 303.15 K, x1 = 0.6): 13.01 ± 0.31 mPa·s
- viscosity ([1]; 303.15 K, x1 = 0.8): 12.89 ± 0.3 mPa·s
- viscosity ([1]; 303.15 K, x1 = 1): 12.88 ± 0.3 mPa·s
- mass density ([1]; 303.15 K, x1 = 0.2): 1093.2 ± 1.4 kg/m3
- mass density ([1]; 303.15 K, x1 = 0.4): 1088.9 ± 1.4 kg/m3
- mass density ([1]; 303.15 K, x1 = 0.6): 1085 ± 1.4 kg/m3
- mass density ([1]; 303.15 K, x1 = 0.8): 1081.4 ± 1.4 kg/m3
- mass density ([1]; 303.15 K, x1 = 1): 1078.1 ± 1.4 kg/m3
- viscosity ([1]; 313.15 K, x1 = 0.2): 10.12 ± 0.24 mPa·s
- viscosity ([1]; 313.15 K, x1 = 0.4): 10.05 ± 0.24 mPa·s
- viscosity ([1]; 313.15 K, x1 = 0.6): 10.02 ± 0.24 mPa·s
- viscosity ([1]; 313.15 K, x1 = 0.8): 9.89 ± 0.23 mPa·s
- viscosity ([1]; 313.15 K, x1 = 1): 9.8 ± 0.23 mPa·s
- mass density ([1]; 313.15 K, x1 = 0.2): 1086.5 ± 1.4 kg/m3
- mass density ([1]; 313.15 K, x1 = 0.4): 1082.2 ± 1.4 kg/m3
- mass density ([1]; 313.15 K, x1 = 0.6): 1078.1 ± 1.4 kg/m3
- mass density ([1]; 313.15 K, x1 = 0.8): 1074.5 ± 1.3 kg/m3
- mass density ([1]; 313.15 K, x1 = 1): 1071.1 ± 1.3 kg/m3
- viscosity ([1]; 323.15 K, x1 = 0.2): 7.92 ± 0.19 mPa·s
- viscosity ([1]; 323.15 K, x1 = 0.4): 7.84 ± 0.18 mPa·s
- viscosity ([1]; 323.15 K, x1 = 0.6): 7.8 ± 0.18 mPa·s
- viscosity ([1]; 323.15 K, x1 = 0.8): 7.77 ± 0.18 mPa·s
- viscosity ([1]; 323.15 K, x1 = 1): 7.73 ± 0.18 mPa·s
- mass density ([1]; 323.15 K, x1 = 0.2): 1079.9 ± 1.4 kg/m3
- mass density ([1]; 323.15 K, x1 = 0.4): 1075.5 ± 1.4 kg/m3
- mass density ([1]; 323.15 K, x1 = 0.6): 1071.3 ± 1.3 kg/m3
- mass density ([1]; 323.15 K, x1 = 0.8): 1067.6 ± 1.3 kg/m3
- mass density ([1]; 323.15 K, x1 = 1): 1064.1 ± 1.3 kg/m3
- viscosity ([1]; 333.15 K, x1 = 0.2): 6.26 ± 0.15 mPa·s
- viscosity ([1]; 333.15 K, x1 = 0.4): 6.22 ± 0.15 mPa·s
- viscosity ([1]; 333.15 K, x1 = 0.6): 6.19 ± 0.15 mPa·s
- viscosity ([1]; 333.15 K, x1 = 0.8): 6.15 ± 0.14 mPa·s
- viscosity ([1]; 333.15 K, x1 = 1): 5.93 ± 0.14 mPa·s
- mass density ([1]; 333.15 K, x1 = 0.2): 1073.4 ± 1.3 kg/m3
- mass density ([1]; 333.15 K, x1 = 0.4): 1068.8 ± 1.3 kg/m3
- mass density ([1]; 333.15 K, x1 = 0.6): 1064.6 ± 1.3 kg/m3
- mass density ([1]; 333.15 K, x1 = 0.8): 1060.8 ± 1.3 kg/m3
- mass density ([1]; 333.15 K, x1 = 1): 1057.2 ± 1.3 kg/m3
- viscosity ([1]; 343.15 K, x1 = 0.2): 5.23 ± 0.12 mPa·s
- viscosity ([1]; 343.15 K, x1 = 0.4): 5.21 ± 0.12 mPa·s
- viscosity ([1]; 343.15 K, x1 = 0.6): 5.2 ± 0.12 mPa·s
- viscosity ([1]; 343.15 K, x1 = 0.8): 5.1 ± 0.12 mPa·s
- viscosity ([1]; 343.15 K, x1 = 1): 4.91 ± 0.12 mPa·s
- mass density ([1]; 343.15 K, x1 = 0.2): 1066.9 ± 1.3 kg/m3
- mass density ([1]; 343.15 K, x1 = 0.4): 1062.3 ± 1.3 kg/m3
- mass density ([1]; 343.15 K, x1 = 0.6): 1057.9 ± 1.3 kg/m3
- mass density ([1]; 343.15 K, x1 = 0.8): 1054.1 ± 1.3 kg/m3
- mass density ([1]; 343.15 K, x1 = 1): 1050.4 ± 1.3 kg/m3
- viscosity ([1]; 353.15 K, x1 = 0.2): 4.44 ± 0.1 mPa·s
- viscosity ([1]; 353.15 K, x1 = 0.4): 4.42 ± 0.1 mPa·s
- viscosity ([1]; 353.15 K, x1 = 0.6): 4.38 ± 0.1 mPa·s
- viscosity ([1]; 353.15 K, x1 = 0.8): 4.32 ± 0.1 mPa·s
- viscosity ([1]; 353.15 K, x1 = 1): 4.15 ± 0.1 mPa·s
- mass density ([1]; 353.15 K, x1 = 0.2): 1060.5 ± 1.3 kg/m3
- mass density ([1]; 353.15 K, x1 = 0.4): 1055.7 ± 1.3 kg/m3
- mass density ([1]; 353.15 K, x1 = 0.6): 1051.3 ± 1.3 kg/m3
- mass density ([1]; 353.15 K, x1 = 0.8): 1047.4 ± 1.3 kg/m3
- mass density ([1]; 353.15 K, x1 = 1): 1043.6 ± 1.3 kg/m3

Structure (SMILES): CCn1cc[n+](C)c1.N#C[C-](C#N)C#N [1-ethyl-3-methyl-1H-imidazolium tricyanomethanide]
- viscosity ([2]; 293.15 K): 17.72 ± 0.42 mPa·s
- mass density ([2]; 293.15 K): 1085.2 ± 1.4 kg/m3
- viscosity ([2]; 303.15 K): 12.88 ± 0.3 mPa·s
- mass density ([2]; 303.15 K): 1078.1 ± 1.4 kg/m3
- viscosity ([2]; 313.15 K): 9.8 ± 0.23 mPa·s
- mass density ([2]; 313.15 K): 1071.1 ± 1.3 kg/m3
- viscosity ([2]; 323.15 K): 7.73 ± 0.18 mPa·s
- mass density ([2]; 323.15 K): 1064.1 ± 1.3 kg/m3
- viscosity ([2]; 333.15 K): 5.93 ± 0.14 mPa·s
- mass density ([2]; 333.15 K): 1057.2 ± 1.3 kg/m3
- viscosity ([2]; 343.15 K): 4.91 ± 0.12 mPa·s
- mass density ([2]; 343.15 K): 1050.4 ± 1.3 kg/m3
- viscosity ([2]; 353.15 K): 4.15 ± 0.1 mPa·s
- mass density ([2]; 353.15 K): 1043.6 ± 1.3 kg/m3
